According to patent US10654802B2, “Indoline derivatives and method for using and producing the same” (ARIZONA BOARD OF REGENTS ON BEHALF OF THE UNIVERSITY OF …, priority 2016, dated 2020):

Target: T1, Nox4 (Homo sapiens, UniProt Q9NPH5)
T1 construct: expressed in transfected cells
T1 sequence (Q9NPH5 1-578): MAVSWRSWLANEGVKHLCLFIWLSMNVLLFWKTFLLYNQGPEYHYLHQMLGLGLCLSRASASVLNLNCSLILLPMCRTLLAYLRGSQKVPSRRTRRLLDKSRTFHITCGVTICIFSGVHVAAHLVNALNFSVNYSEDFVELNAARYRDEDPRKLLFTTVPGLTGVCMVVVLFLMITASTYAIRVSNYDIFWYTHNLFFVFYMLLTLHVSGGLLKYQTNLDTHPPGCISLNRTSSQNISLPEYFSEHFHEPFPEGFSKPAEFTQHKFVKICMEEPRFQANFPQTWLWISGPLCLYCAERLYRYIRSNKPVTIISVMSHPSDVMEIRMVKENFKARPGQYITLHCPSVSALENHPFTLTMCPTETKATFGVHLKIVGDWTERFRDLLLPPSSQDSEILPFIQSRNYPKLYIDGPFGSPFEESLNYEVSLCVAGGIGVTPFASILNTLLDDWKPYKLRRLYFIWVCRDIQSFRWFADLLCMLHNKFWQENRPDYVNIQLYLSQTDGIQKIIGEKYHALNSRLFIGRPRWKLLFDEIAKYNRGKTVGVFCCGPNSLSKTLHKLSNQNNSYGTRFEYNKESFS
T1 sequence (P13498 1-195 partner): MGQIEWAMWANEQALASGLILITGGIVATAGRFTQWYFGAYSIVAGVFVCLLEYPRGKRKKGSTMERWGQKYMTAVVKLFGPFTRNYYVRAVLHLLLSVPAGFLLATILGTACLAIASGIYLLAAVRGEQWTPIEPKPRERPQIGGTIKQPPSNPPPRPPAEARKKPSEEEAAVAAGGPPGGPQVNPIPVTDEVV
Assay: Inhibition of Nox4-dependent H2O2 production in HEK/Nox4 cells, Amplex Red assay
Assay type: cell-based
Settings: 1 h, HEK/Nox4 cells, DMSO vehicle = 1.000, n = 3-10, read-out: H2O2 production relative to vehicle control, Mean; for remaining activity at 1 µM: 1 μM final concentration; for remaining activity at 5 µM: 5 μM final concentration; for remaining activity at 10 µM: 10 μM final concentration
Procedure: A high-throughput screening (HTS) assay was established for Nox4 inhibition, utilizing HEK293 cells that stably over-express Nox4 (HEK/Nox4 cells), which generate high levels of H2O2(Cheng G et al, Gene: 2001, p. 131-140). Over 30,000 compounds have been screened and medicinal chemistry efforts have led to the synthesis of numerous analogs and the identification of a chemically distinct series of selective Nox4 inhibitors. […] IC-50 was evaluated for UANox048 (FIG. 1B).
HEK cells stably transfected to overexpress Nox4 were treated with varying concentrations of test compounds, DPI (all-Nox inhibitor positive control), or DMSO (vehicle control) and incubated for 1 h (FIG. 1). (FIG. 1A) H2O2 presence was evaluated by Amplex Red assay. […] Values represent means±SEM; n=4. P values were calculated by student's two-tailed t test. *p<0.05, **p<0.01, *** p<0.001.

Structure (SMILES) | remaining activity at 1 µM [%] | remaining activity at 5 µM [%] | remaining activity at 10 µM [%]
O=S(=O)(NCCN1CCc2ccccc21)c1ccc(Oc2ccccc2)cc1 [UANOX079, N-(2-(indolin-1-yl)ethyl)-4-phenoxybenzenesulfonamide] | 89.6 | 65.1 | 58.4
COc1ccc(-c2nc(C(=O)NCC(C)N3CCc4ccccc43)cs2)cc1 (stereo not drawn) [UANOX054, N-(2-(indolin-1-yl)propyl)-2-(4-(methoxy)phenyl)thiazole-4-carboxamide] | 90.2 | 87.6 | 82.4
CCN(CC)S(=O)(=O)N1CCN(CC(=O)N2CCc3ccccc32)CC1 [UANOX025, N,N-diethyl-4-(2-(indolin-1-yl)-2-oxoethyl)piperazine-1-sulfonamide] | 107 | 113 | 112
O=C(CCN1CCN(S(=O)(=O)N2CCCCC2)CC1)N1CCc2ccccc21 [UANOX031, 1-(indolin-1-yl)-3-(4-(piperidin-1-ylsulfonyl)piperazin-1-yl)propan-1-one] | 111 | 111 | 99.7
O=C(CN1CCN(S(=O)(=O)N2CCCCC2)CC1)N1CCc2ccccc21 [UANOX027, 1-(indolin-1-yl)-2-(4-(piperidin-1-ylsulfonyl)piperazin-1-yl)ethan-1-one] | 113 | 113 | 112
O=C(NCCN1CCc2ccccc21)N1CCCC1 [UANOX021, N-(2-(indolin-1-yl)ethyl)pyrrolidine-1-carboxamide] | 74.2 | 87.6 | 79.1
CC(C)(CNS(=O)(=O)c1ccc(F)cc1)N1CCc2ccccc21 [UANOX086, 4-fluoro-N-(2-(indolin-1-yl)-2-methylpropyl)benzenesulfonamide] | 90.7 | 81.6 | 71.4
O=C(CN1CCN(c2ncccn2)CC1)N1CCc2ccccc21 [UANOX0192, 1-(indolin-1-yl)-2-(4-(pyrimidin-2-yl)piperazin-1-yl)ethan-1-one] | 96.4 | 111 | 108
O=S(=O)(NCCN1CCc2ccccc21)c1ccc(OC(F)(F)F)cc1 [UANOX076, 4-trifluoromethoxy-N-(2-(indolin-1-yl)ethyl)benzenesulfonamide] | 83.2 | 72 | 66.2
CCN(CC)C(=O)NCCN1CCc2ccccc21 [UANOX002, 1,1-diethyl-3-(2-(indolin-1-yl)ethyl)urea] | 98.6 | 106 | 101
O=C(CN1CCN(S(=O)(=O)N2CCOCC2)CC1)N1CCc2ccccc21 [UANOX026, 1-(indolin-1-yl)-2-(4-(morpholinosulfonyl)piperazin-1-yl)ethan-1-one] | 90.6 | 106 | 101
CC(CNS(=O)(=O)N(C)C)N1CCc2ccccc21 (stereo not drawn) [UANOX007, N—(N,N-dimethylaminosulfonyl)-2-(indolin-1-yl)propane-1-amine] | 103 | 91.6 | 90.8
CCN(CC)S(=O)(=O)N1CCN(CCN2CCc3ccccc32)CC1 [UANOX063, N,N-diethyl-4-(2-(indolin-1-yl)ethyl)piperazine-1-sulfonamide] | 90.2 | 71.9 | 66.5
CCN(CC)C(=O)N1CCN(CCN2CCc3ccccc32)CC1 [UANOX066] | 95.3 | 72.2 | 73.1
CC(C)(CNS(=O)(=O)c1ccc(Oc2ccccc2)cc1)N1CCc2ccccc21 [UANOX085, N-(2-(indolin-1-yl)-2-methylpropyl)-4-phenoxybenzenesulfonamide] | 92.7 | 83.5 | 73.6
c1ccc2c(c1)CCN2CCN1CCCCC1 [UANOX018, 1-(2-(piperidin-1-yl)ethyl)indoline] | 110 | 103 | 100
CCN(CC)S(=O)(=O)NCC(C)(C)N1CCc2ccccc21 [UANOX083, N—(N,N-diethylaminosulfonyl)-2-(indolin-1-yl)-2-methylpropane-1-amine] | 82.3 | 73 | 66.5
COc1cccc(-c2ccc3c(c2)CCN3C(C)CNS(=O)(=O)N2CCN(C)CC2)c1 (stereo not drawn) [UANOX0254, N-(2-(5-(3-methoxyphenyl)indolin-1-yl)propyl)-4-methylpiperazine-1-sulfonamide] | 87.8 | 88 | 76.3
CC(CNC(=O)N1CCCC1)N1CCc2ccccc21 (stereo not drawn) [UANOX020, N-(2-(indolin-1-yl)propyl)pyrrolidine-1-carboxamide] | 73.7 | 87 | 86.6
O=S(=O)(NCCN1CCc2ccccc21)c1ccc(F)c(F)c1 [UANOX081, 3,4-difluoro-N-(2-(indolin-1-yl)ethyl)benzenesulfonamide] | 88.8 | 67 | 55.8
CCN(CC)S(=O)(=O)NCC(C)N1CCc2cc(-c3cccc(OC)c3)ccc21 (stereo not drawn) [UANOX036, N-(2-(5-(3-methoxyphenyl)indolin-1-yl)propyl)-N,N-diethyl-1-sulfonamide] | 102 | 83.2 | 74.7
O=S(=O)(NCCN1CCc2ccccc21)N1CCCCC1 [UANOX013, N-(2-(indolin-1-yl)ethyl)piperidine-1-sulfonamide] | 101 | 92.1 | 88.1
CN(C)S(=O)(=O)N1CCN(CCC(=O)N2CCc3ccccc32)CC1 [UANOX032, 4-(3-(indolin-1-yl)-3-oxopropyl)-N,N-dimethylpiperazine-1-sulfonamide] | 112 | 109 | 105
O=C(CCN1CCN(S(=O)(=O)N2CCOCC2)CC1)N1CCc2ccccc21 [UANOX030] | 108 | 108 | 104
COc1ccc(S(=O)(=O)NCC(C)(C)N2CCc3ccccc32)cc1 [UANOX089, N-(2-(indolin-1-yl)-2-methylpropyl)-4-methoxybenzenesulfonamide] | 101 | 83.6 | 70.1
CC(CNS(=O)(=O)c1ccc(Oc2ccc(C(F)(F)F)cn2)cc1)N1CCc2ccccc21 (stereo not drawn) [UANOX070, N-(2-(indolin-1-yl)propyl)-4-((5-(trifluoromethyl)pyridin-2-yl)oxy)benzenesulfonamide] | 91.4 | 77.9 | 69.3
CCN(CC)S(=O)(=O)Nc1ccc(N2CCc3ccccc32)cc1 [UANOX038, N—(N,N-diethylaminosulfonyl)-4-(indolin-1-yl)aniline] | 92.5 | 80 | 63.5
